Source: patent publication US8044052B2, “Biaryl ether urea compounds” (Pfizer Inc., priority 2006, dated 2011)

Molecular target: T1, Human FAAH (Homo sapiens, UniProt O00519)
T1 construct: made in house
T1 sequence (O00519 1-579): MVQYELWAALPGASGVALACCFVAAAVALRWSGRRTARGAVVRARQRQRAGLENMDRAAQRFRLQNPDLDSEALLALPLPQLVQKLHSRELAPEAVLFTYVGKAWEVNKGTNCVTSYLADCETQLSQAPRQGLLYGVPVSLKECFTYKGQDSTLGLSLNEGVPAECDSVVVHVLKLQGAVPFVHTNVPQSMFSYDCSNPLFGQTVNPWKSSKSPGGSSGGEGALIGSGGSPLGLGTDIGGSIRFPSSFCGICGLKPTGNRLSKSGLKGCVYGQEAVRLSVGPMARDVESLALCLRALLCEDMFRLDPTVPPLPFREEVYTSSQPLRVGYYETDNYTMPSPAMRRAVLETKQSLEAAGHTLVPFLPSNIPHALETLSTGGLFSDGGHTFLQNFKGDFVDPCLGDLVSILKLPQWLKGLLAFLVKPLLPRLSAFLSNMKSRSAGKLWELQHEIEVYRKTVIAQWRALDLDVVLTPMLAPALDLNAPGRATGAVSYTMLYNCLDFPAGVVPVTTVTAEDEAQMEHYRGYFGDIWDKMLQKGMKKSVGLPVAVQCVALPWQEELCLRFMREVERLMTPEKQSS
Assay: FAAH assay (glutamate dehydrogenase-coupled, oleamide substrate, absorbance at 340 nm)
Format: biochemical
Conditions: irreversible inhibition, 1-4 nM FAAH, pH 7.4, 30° C., 90 min
Description: The FAAH assay was carried out in 384-well clear polystyrene plates in a total volume of 50 μl per well. All percents are by volume. To each well, was placed the reaction mixture (40 μl) containing 1-4 nM FAAH, 50 mM NaPi, pH 7.4, 3 mM α-ketoglutarate, 0.15 mM NADH, 7.5 U/ml glutamate dehydrogenase, 2 mM ADP, 1 mM EDTA, and 0.1% Triton X-100 (The concentration shown for each component is the final concentration in the assay). […] This was immediately followed by the addition of 5 μl oleamide (500 μM) dissolved in 75% EtOH/25% DMSO and the reaction mixture was mixed for 1.5 min. The final concentrations of DMSO and EtOH in the assay were each 7.5%.
Initial velocity data (V) were obtained from the slopes of the initial progressive curves. They were plotted as a function of substrate concentration and fit to the Michaelis-Menten equation (1) using Prism (GraphPad Software, Inc., San Diego, Calif.) software to obtain Km and Vmax values.
To obtain potencies of irreversible inhibitors, progressive curves consistent with first order inhibition kinetics (two-step irreversible inhibition mechanism) were fit to equation (2) by nonlinear least squares regressions to determine kobs values at each inhibitor concentration, where [P]t is the absorbance at time t, V0 is a constant related to the steady state rate of the uninhibited reaction, and kobs is the first order rate constant for enzyme inactivation. The inhibitor dissociation constant (Ki) and the first order rate
[formula] constant of enzyme inactivation at infinite inhibitor concentration (kinact) were then obtained by fitting the kobs vs. [I] curves to equation (3).

In order of falling “hFAAH kinact/Ki” value:
1. Cc1cnc(NC(=O)N2CCC(=Cc3cccc(Oc4ccc(C(F)(F)F)cn4)c3)CC2)cn1 [Example 22, N-(5-methyl-pyrazin-2-yll)-4-(3-{[5-(trifluoromethyl)pyridin-2-yl]oxy}benzylidene)piperidine-1-carboxamide]  12000 M⁻¹ s⁻¹
2. 4-(3-(5-methylpyridin-2-yloxy)benzylidene)-N-pyridin-3-yl)piperidine-1-carboxamide [Example 44]  9480 M⁻¹ s⁻¹
3. N-(pyridazin-3-yl)-4-(3-{[phenyl-2-yl]oxy}benzylidene)piperidine-1-carboxamide [Example 32]  973 M⁻¹ s⁻¹

Same assay, conditions: irreversible inhibition, 1-4 nM FAAH, pH 7.4, 30° C., 90 min, read-out: hFAAH kinact/Ki

`COc1cncc(NC(=O)N2CCC(=Cc3cccc(Oc4ccc(C(F)(F)F)cn4)c3)CC2)c1` [Example 130, N-(5-methoxypyridin-3-yl)-4-(3-{[5-(trifluoromethyl)pyridin-2-yl]oxy}benzylidene)piperidine-1-carboxamide] and `Cc1cc(NC(=O)N2CCC(=Cc3cccc(Oc4ccc(C(F)(F)F)cn4)c3)CC2)cnc1C` [Example 131, N-(5,6-dimethylpyridin-3-yl)-4-(3-{[5-(trifluoromethyl)pyridin-2-yl]oxy}benzylidene)piperidine-1-carboxamide] are within 1.5-fold of each other in kinact/KI: 944 M⁻¹ s⁻¹ for the first, 1110 M⁻¹ s⁻¹ for the second.

First: O=C(Nc1cccnc1)N1CCC(=Cc2cccc(Oc3ccc(N4CCC4)cn3)c2)CC1 [Example 88, 4-(3-(5-(azetidin-1-yl)pyridin-2-yloxy)benzylidene)-N-(pyridin-3-yl)piperidine-1-carboxamide]
Second: O=C(Nc1cccnc1)N1CCC(=Cc2cccc(Oc3ccc(OCC(F)(F)F)cn3)c2)CC1 [Example 49, 4-(3-(5-(2,2,2-trifluoroethoxy)pyridin-2-yloxy)benzylidene)-N-(pyridin-3-yl)piperidine-1-carboxamide]
The kinact/KI of the first is 1.8-fold lower: 3580 M⁻¹ s⁻¹ for the first, 6560 M⁻¹ s⁻¹ for the second.

First: O=C(Nc1cccnc1)N1CCC(=Cc2cc(Br)cc(Oc3ccc(C(F)(F)F)cn3)c2)CC1 [Example 62, 4-(3-bromo-5-(5-(trifluoromethyl)pyridin-2-yloxy)benzylidene)-N-(pyridin-3-yl)piperidine-1-carboxamide]
Second: O=C(Nc1cccnc1)N1CCC(=Cc2cc(F)cc(Oc3ccc(C(F)(F)F)cn3)c2)CC1 [Example 65, 4-(3-fluoro-5-(5-(trifluoromethyl)pyridin-2-yloxy)benzylidene)-N-(pyridin-3-yl)piperidine-1-carboxamide]
The kinact/KI of the first is 4.9-fold lower: 1370 M⁻¹ s⁻¹ for the first, 6710 M⁻¹ s⁻¹ for the second.

Compared with `Cc1ccc(Oc2cccc(C=C3CCN(C(=O)Nc4cccnn4)CC3)c2)nc1` [Example 45, 4-(3-(5-methylpyridin-2-yloxy)benzylidene)-N-(pyridazin-3-yl)piperidine-1-carboxamide], `CCOc1ccc(Oc2cccc(C=C3CCN(C(=O)Nc4cccnn4)CC3)c2)nc1` [Example 48, 4-(3-(5-ethoxypyridin-2-yloxy)benzylidene)-N-(pyridazin-3-yl)piperidine-1-carboxamide] is 2.2-fold lower in kinact/KI: 12800 M⁻¹ s⁻¹ for the first, 5830 M⁻¹ s⁻¹ for the second.

First: Cc1nnc(Oc2cccc(C=C3CCN(C(=O)Nc4cccnn4)CC3)c2)c2ccccc12 [Example 119, 4-{3-[(4-methylphthalazin-1-yl)oxy]benzylidene}-N-pyridazin-3-ylpiperidine-1-carboxamide]
Second: O=C(Nc1cccnn1)N1CCC(=Cc2cccc(Oc3nc(-c4ccccc4)ns3)c2)CC1 [Example 125, 4-{3-[(3-phenyl-1,2,4-thiadiazol-5-yl)oxy]benzylidene}-N-pyridazin-3-ylpiperidine-1-carboxamide]
The kinact/KI of the first is 1.8-fold lower: 77.7 M⁻¹ s⁻¹ for the first, 140 M⁻¹ s⁻¹ for the second.

First: O=C(Nc1cccnn1)N1CCC(=Cc2cccc(Oc3ccc(C4CC4)cn3)c2)CC1 [Example 39, 4-(3-(5-cyclopropylpyridin-2-yloxy)benzylidene)-N-(pyridazin-3-yl)piperidine-1-carboxamide]
Second: O=C(Nc1cccnn1)N1CCC(=Cc2cccc(Oc3ccc(C(F)(F)F)cc3)c2)CC1 [Example 54, 4-(3-(4-(trifluoromethyl)phenoxy)benzylidene)-N-(pyridazin-3-yl)piperidine-1-carboxamide]
The kinact/KI of the first is 1.5-fold higher: 18200 M⁻¹ s⁻¹ for the first, 12000 M⁻¹ s⁻¹ for the second.

`Cc1noc(NC(=O)N2CCC(=Cc3cccc(Oc4ccc(Br)cn4)c3)CC2)c1C` [Example 35, 4-(3-(5-bromopyridin-2-yloxy)benzylidene)-N-(3,4-dimethylisoxazol-5-yl)piperidine-1-carboxamide] and `Cc1noc(NC(=O)N2CCC(=Cc3cccc(Oc4ccc(C(F)(F)F)cn4)c3)CC2)c1C` [Example 2, N-(3,4-dimethylisoxazol-5-yl)-4-(3-{[5-(trifluoromethyl)pyridin-2-yl]oxy}benzylidene)piperidine-1-carboxamide] are within 1.5-fold of each other in kinact/KI: 3670 M⁻¹ s⁻¹ for the first, 5050 M⁻¹ s⁻¹ for the second.

Going from `O=C(Nc1cccnc1)N1CCC(=C(c2ccccc2)c2cccc(Oc3ccc(C(F)(F)F)cn3)c2)CC1` [Example 68, 4-(phenyl(3-(5-(trifluoromethyl)pyridin-2-yloxy)phenyl)methylene)-N-(pyridin-3-yl)piperidine-1-carboxamide] to `O=C(Nc1ccccc1)N1CCC(=Cc2cccc(Oc3ccc(C(F)(F)F)cn3)c2)CC1` [Example 10, N-phenyl-4-(3-{[5-(trifluoromethyl)pyridin-2-yl]oxy}benzylidene)piperidine-1-carboxamide], the kinact/KI rises from 206 M⁻¹ s⁻¹ to 3070 M⁻¹ s⁻¹ (15-fold).

Compared with `Cc1cccnc1Oc1cccc(C=C2CCN(C(=O)Nc3cccnc3)CC2)c1` [Example 42, 4-(3-(3-methylpyridin-2-yloxy)benzylidene)-N-(pyridin-3-yl)piperidine-1-carboxamide], `Cc1ccnc(NC(=O)N2CCC(=Cc3cccc(Oc4ccc(C(F)(F)F)cn4)c3)CC2)c1` [Example 135, N-(4-methylpyridin-2-yl)-4-(3-{[5-(trifluoromethyl)pyridin-2-yl]oxy}benzylidene)piperidine-1-carboxamide] is 4.8-fold lower in kinact/KI: 834 M⁻¹ s⁻¹ for the first, 173 M⁻¹ s⁻¹ for the second.

First: CCOc1cc(C=C2CCN(C(=O)Nc3cccnc3)CC2)cc(Oc2ccc(C(F)(F)F)cn2)c1 [Example 58, 4-(3-ethoxy-5-(5-(trifluoromethyl)pyridin-2-yloxy)benzylidene)-N-(pyridin-3-yl)piperidine-1-carboxamide]
Second: O=C(Nc1cccc(CO)c1)N1CCC(=Cc2cccc(Oc3ccc(C(F)(F)F)cn3)c2)CC1 [Example 82, N-[3-(hydroxymethyl)phenyl]-4-(3-{[5-(trifluoromethyl)pyridin-2-yl]oxy}benzylidene)piperidine-1-carboxamide]
The kinact/KI of the first is 3-fold lower: 322 M⁻¹ s⁻¹ for the first, 979 M⁻¹ s⁻¹ for the second.

Compared with `Cc1noc(NC(=O)N2CCC(=Cc3cccc(Oc4ccc(C(F)(F)F)cc4)c3)CC2)c1C` [Example 55, 4-(3-(4-(trifluoromethyl)phenoxy)benzylidene)-N-(3,4-dimethylisoxazol-5-yl)piperidine-1-carboxamide], `O=C(Nc1onc2ccccc12)N1CCC(=Cc2cccc(Oc3ccc(C(F)(F)F)cn3)c2)CC1` [Example 6, N-2,1-benzisoxazol-3-yl-4-(3-{[5-(trifluoromethyl)pyridin-2-yl]oxy}benzylidene)piperidine-1-carboxamide] is 1.6-fold higher in kinact/KI: 1610 M⁻¹ s⁻¹ for the first, 2510 M⁻¹ s⁻¹ for the second.

First: O=C(Nc1cccnn1)N1CCC(=Cc2cccc(Oc3ccccc3)n2)CC1 [Example 91, 4-((6-phenoxypyridin-2-yl)methylene)-N-(pyridazin-3-yl)piperidine-1-carboxamide]
Second: Cc1cc(C)nc(Oc2cccc(C=C3CCN(C(=O)Nc4cccnn4)CC3)c2)n1 [Example 120, 4-{3-[(4,6-dimethylpyrimidin-2-yl)oxy]benzylidene}-N-pyridazin-3-ylpiperidine-1-carboxamide]
The kinact/KI of the first is higher: 636 M⁻¹ s⁻¹ for the first, less than 14.5 M⁻¹ s⁻¹ for the second.

`O=C(Nc1cncc(Cl)n1)N1CCC(=Cc2cccc(Oc3ccc(C(F)(F)F)cn3)c2)CC1` [Example 27, N-(6-chloropyrazin-2-yl)-4-(3-{[5-(trifluoromethyl)pyridin-2-yl]oxy}benzylidene)piperidine-1-carboxamide] and `O=C(Nc1ccccc1F)N1CCC(=Cc2cccc(Oc3ccc(C(F)(F)F)cn3)c2)CC1` [Example 29, 4-(3-(5-(trifluoromethyl)pyridin-2-yloxy)benzylidene)-N-(2-fluorophenyl)piperidine-1-carboxamide] are within 1.5-fold of each other in kinact/KI: 3900 M⁻¹ s⁻¹ for the first, 3370 M⁻¹ s⁻¹ for the second.

`COc1ccc(NC(=O)N2CCC(=Cc3cccc(Oc4ccc(C(F)(F)F)cn4)c3)CC2)c(OC)n1` [Example 127, N-(2,6-dimethoxypyridin-3-yl)-4-(3-{[5-(trifluoromethyl)pyridin-2-yl]oxy}benzylidene)piperidine-1-carboxamide] gave a kinact/KI of 675 M⁻¹ s⁻¹.
